Publication PMC6010102, “N-thioalkylcarbazoles derivatives as new anti-proliferative agents: synthesis, characterisation and molecular mechanism evaluation” (Journal of Enzyme Inhibition and Medicinal Chemistry, 2018)

Tests used:
[1] = test system: HeLa human epithelial cervix carcinoma cells; assay: MTT cell viability, HeLa; format: cell-based; settings: 72 h exposure, mean ± SD, read-out: Antiproliferative activity IC50, HeLa
Description: (§1) The six cell lines used in this work were purchased from American Type Culture Collection (ATCC, Manassas, VA). MCF-7 human breast cancer cells, oestrogen receptor (ER) positives, were maintained in Dulbecco’s Modified Eagle’s Medium/Nutrient Mixture F-12 Ham (DMEM/F12), supplemented with 5% foetal bovine serum (FBS) and 100 U/ml penicillin/streptomycin, as previously described. MDA-MB-231, human breast cancer cells, oestrogen receptor (ER) negative, were maintained in Dulbecco’s Modified Eagle’s Medium/Nutrient Mixture F-12 Ham (DMEM/F12), supplemented with 5% Newborn Calf Serum (NCS) and 100 U/ml penicillin/streptomycin. HeLa human epithelial cervix carcinoma cells, oestrogen receptor (ER) negative, and ISHIKAWA human endometrial adenocarcinoma cell, oestrogen receptor positive, were maintained in minimum essential medium (MEM), supplemented with 10% FBS, 100 U/ml penicillin/streptomycin and 1% non-essential amino acid. 3T3-L1 cells line of murine fibroblasts of embryonic type, were maintained in DMEM, supplemented with 10% NCS and 100 U/ml penicillin/streptomycin. MCF-10A human mammary epithelial cells were cultured in DMEM/F12 medium, supplemented with 5% horse serum (HS) (Eurobio, Les Ullis, Cedex, France), 100 U/ml penicillin/streptomycin, […] hydrocortisone, 20 ng/ml hEGF (human epidermal growth factor), 10 μg/ml insulin and […] cholera enterotoxin (Sigma-Aldrich, Milano, Italy). Cells were maintained at 37 °C in a humidified atmosphere of 95% air and 5% CO2 and periodically screened for contamination.
(§2) MDA-MB-231, MCF-7, HeLa and ISHIKAWA cells were grown in complete medium and, before being treated, they were serum deprived for 24 h, to allow cell cycle synchronisation. Then cells were grown in phenol red-free medium supplemented with 1% DCC (destran-coated charcoal treated) FBS, then treated with increasing concentrations (0.1, 1, 10, 20, 40, 100 µM) of each compound for 72 h. Compounds were dissolved in dimethylsulphoxide (DMSO) (Sigma, St. Louis, MO) and diluted in each cell medium. Untreated cells, used as a control, were added with DMSO alone (final concentration 0.1%). Cell viability was assessed using the 3-[4,5-dimethylthiazol-2-yl]-2,5-diphenyltetrazolium bromide reagent (MTT), according to the protocol from manufacturer (Sigma-Aldrich, Milan, Italy), as previously described[37] ^, [38]. For each sample, the mean absorbance, measured at 570 nm, was expressed as a percentage of the control and plotted versus drug concentration to determine for each cell line the IC50 values (namely, drugs concentrations able to reduce cell viability of 50% with respect to the control), using GraphPad Prism 5 Software (GraphPad Inc., San Diego, CA)[39]. Each experiment was carried out in quadruplicate. Standard deviations (SD) were shown.

[2] = test system: MCF-10A human mammary epithelial cells; assay: MTT cell viability, MCF-10A; format: cell-based; settings: non-tumoural cells, 72 h exposure, mean ± SD, read-out: Antiproliferative activity IC50, MCF-10a
Description: as §1, §2

Parp-1 = Parp-1 cleavage immunoblot in HeLa cells; format: cell-based, human; settings: 10 µM, 24, 48 and 72 h, western blot
Procedure: Cells were serum deprived for 24 h, treated for 24, 48 and 72 h with the compound to be tested. At the end, cells were rinsed twice with ice cold PBS and immediately lysed in lysis buffer (50 mM Tris-HCl, pH 7, 5–8; 150 mM NaCl, 1% Igepal CA-630; 0.1% SDS; 0.5% sodium deoxycholate) containing 1% sodium orthovanadate and 1% phenylmethylsulphonyl fluoride (PMSF). Cell lysates were cleared by centrifugation at 14,000 g for 10 min at 4 °C. Protein concentrations were determined using the Bradford protein assay[40] (Bio-Rad Laboratories, Milan, Italy) according to the directions from the manufacturer. Equal amounts of cell extracts (about 20 µg) were resolved under denaturing conditions by electrophoresis in 10% polyacrylamide gels containing SDS (SDS-PAGE) and transferred to nitrocellulose membranes by electroblotting (GE Healthcare, Piscataway, NJ). […] After incubation with the appropriate secondary antibody (VWR International PBI, MI, Italy) for 1 h at room temperature, the proteins of interest were detected on the membranes by using enhanced chemiluminescence (Amersham ECL Prime Western Blotting Detection Reagent, GE Healthcare, Piscataway, NJ).

HeLa cells = assay: TUNEL assay in HeLa cells; format: cell-based, human; settings: concentration equal to IC50, 24 h
Procedure: Apoptosis was detected by the TUNEL assay, according to the guidelines of the manufacturer (CF™488A TUNEL Assay Apoptosis Detection Kit, Biotium, Hayward, CA)[8]. Briefly, cells were grown on glass coverslips and, after treatment, they were washed trice with PBS, then methanol-fixed at −20 °C for 15 min. Fixed cells were washed trice with 0.01% (V/V) Triton X-100 in PBS and incubated with 100 µL of TUNEL equilibration buffer for 5 min. After its removal, 50 µL of TUNEL reaction mixture containing 1 µL of terminal deoxynucleotidyl transferase (TdT) were added to each sample and incubated in a dark and humidified chamber for 2 h at 37 °C. Samples were washed trice with ice-cold phosphate-buffered saline (PBS) containing 0.1% Triton X-100 and 5 mg/mL bovine serum albumin (BSA). 2-(4-Amidinophenyl)-6-indolecarbamidine dihydrochloride (DAPI) (0.2 µg/mL) counterstain was performed (10 min, 37 °C, dark and humidified conditions). After three additional washes with cold PBS, one drop of mounting solution was added, then they were observed and imaged under a fluorescence microscope (Leica DM 6000, Leica, Frankfurt am Main, Germany) (20× magnification) with excitation/emission wavelength maxima of 490 nm/515 nm (CF^TM488A) or 350 nm/460 nm (DAPI). Representative fields were shown. The experiments were repeated three times.

caspase-8 = assay: Caspase-Glo assay, caspase-8; format: cell-based, human; settings: HeLa cells, concentration equal to IC50, 24 h
Procedure: (§3) Caspases-3/7, -8 and -9 activities were measured with the Caspase-Glo Assay, according to the guidelines of manufacturer (Caspase-Glo® 3/7, 8 and 9 Assay Systems, Promega Corporation, Madison, WI) as described in Iacopetta et al.[43].

caspases 3 and 7 = assay: Caspase-Glo assay, caspases 3/7; format: cell-based, human; settings: HeLa cells, concentration equal to IC50, 24 h
Procedure: as §3

With `Cc1ccc(C)c2c1c1cc(Br)ccc1n2CCCCCCCS` [5c, 7-(6-Bromo-1,4-dimethyl-9H-carbazol-9-yl)-heptane-1-thiol] the IC50 [1] was 11.3 ± 0.63 µM, the IC50 [2] was greater than 100 µM and the “Parp-1 cleavage (about 89 KDa form)” value (Parp-1) was “presence of the cleaved form of Parp-1”. For the same compound, the “apoptosis / DNA damage (TUNEL)” value (HeLa cells) was “induced DNA damage and led to cell death triggering the apoptotic mechanism”, the caspase-8 activity (caspase-8) was “no increase of caspase-8 activity” and the “caspases 3 and 7 activity” value (caspases 3 and 7) was “clear increase of caspases 3 and 7 activity”.
